Literature values as cited in US4939134A, “26-aminocholesterol and derivatives and analogs thereof in the regulation of cholesterol accumulation in body tissue” (New York University, priority 1988, dated 1990).

What was measured:
[1] = tested on: hepatic cholesterol synthesis; conditions: cited from earlier work
HMG CoA reductase = conditions: cited from earlier work
LDL receptors = conditions: fibroblasts and other non-hepatic cells, cell culture studies; cited from earlier work

CC[C@H](C)C(=O)O[C@H]1C[C@@H](C)C=C2C=C[C@H](C)[C@H](CC[C@@H]3C[C@@H](O)CC(=O)O3)[C@H]21 [mevinolin]
hepatic cholesterol synthesis [1]: inhibit hepatic cholesterol synthesis
amount of HMG CoA reductase (HMG CoA reductase): increases the amount of HMG CoA reductase
LDL receptors (LDL receptors): upregulates LDL receptors
